Laboratory results as given in patent US20210254056A1, “IDENTIFICATION AND TARGETED MODULATION OF GENE SIGNALING NETWORKS” (CAMP4 THERAPEUTICS CORPORATION, priority 2017, published 2021).

Tested on: hepatocytes
Assay: RNA-seq of hepatocytes treated with Phase III failure compounds
Details: hepatocytes
Protocol: RNA-seq was performed to determine the effects of the compounds on hepatocytes.
Significance was determined by the criteria of FPKM≥0.5, a log 2(fold-change)≥1, and a […].

## CCC(CC)[C@H](NC(C)=O)[C@@H]1[C@H](O)[C@@H](C(=O)O)C[C@H]1NC(=N)N.O.O.O [peramivir (trihydrate), peramivir]
Gene SLC33A1
  RNA-seq results: SLC33A1: −0.02
Gene SLC35C1
  RNA-seq results, SLC35C1: 0.17
  RNA-seq results: SLC35C1: 0.07
Gene SLC39A4
  RNA-seq results, SLC39A4: 0.31
  RNA-seq results: SLC39A4: 0.32
Gene SLC40A1
  RNA-seq results, SLC40A1: 0.39
  RNA-seq results: SLC40A1: −0.18
Gene SLC46A1
  RNA-seq results, SLC46A1: 0.08
  RNA-seq results: SLC46A1: 0.17
Gene SLC51A
  RNA-seq results, SLC51A: 0.08
  RNA-seq results: SLC51A: −0.03
Gene SLC51B
  RNA-seq results, SLC51B: 0.29
  RNA-seq results: SLC51B: 0.08
Gene SLCO1B1
  RNA-seq results, SLCO1B1: −0.33
  RNA-seq results: SLCO1B1: −0.23
Gene SLCO4C1
  RNA-seq results, SLCO4C1: −0.39
  RNA-seq results: SLCO4C1: −0.05
Gene SMAD4
  RNA-seq results, SMAD4: −0.2
  RNA-seq results: SMAD4: −0.17
Gene SMARCB1
  RNA-seq results, SMARCB1: 0.11
  RNA-seq results: SMARCB1: −0.19
Gene SNX10
  RNA-seq results, SNX10: −0.36
  RNA-seq results: SNX10: −0.57
Gene SORT1
  RNA-seq results, SORT1: −0.15
  RNA-seq results: SORT1: −0.12
Gene SPP2
  RNA-seq results, SPP2: −0.12
  RNA-seq results: SPP2: −0.17
Gene SPRTN
  RNA-seq results, SPRTN: −0.17
  RNA-seq results: SPRTN: −0.18
Gene ST3GAL5
  RNA-seq results, ST3GAL5: −0.19
  RNA-seq results: ST3GAL5: −0.11
Gene STAT1
  RNA-seq results, STAT1: −0.31
  RNA-seq results: STAT1: −0.45
Gene STEAP3
  RNA-seq results, STEAP3: 0.03
  RNA-seq results: STEAP3: 0.03
Gene STIM1
  RNA-seq results, STIM1: 0.1
  RNA-seq results: STIM1: −0.07
Gene SULT2A1
  RNA-seq results, SULT2A1: 0.65
  RNA-seq results: SULT2A1: −0.07
Gene SUOX
  RNA-seq results, SUOX: −0.18
  RNA-seq results: SUOX: −0.01
Gene TARS2
  RNA-seq results, TARS2: 0.2
  RNA-seq results: TARS2: −0.08
Gene TAT
  RNA-seq results, TAT: −0.56
  RNA-seq results: TAT: 0.16
Gene TCIRG1
  RNA-seq results, TCIRG1: 0.29
  RNA-seq results: TCIRG1: 0.39
Gene TCTN3
  RNA-seq results, TCTN3: −0.04
  RNA-seq results: TCTN3: −0.34
Gene TDO2
  RNA-seq results, TDO2: −0.58
  RNA-seq results: TDO2: −0.14
Gene TF
  RNA-seq results, TF: 0.02
  RNA-seq results: TF: −0.09
Gene TFR2
  RNA-seq results, TFR2: 0.21
  RNA-seq results: TFR2: 0.07
Gene TGFB1
  RNA-seq results, TGFB1: −0.25
  RNA-seq results: TGFB1: −0.16
Gene THPO
  RNA-seq results, THPO: −0.03
  RNA-seq results: THPO: 0.03
Gene THRB
  RNA-seq results, THRB: −0.28
  RNA-seq results: THRB: −0.18
Gene TK2
  RNA-seq results, TK2: 0.12
  RNA-seq results: TK2: 0.15
Gene TMEM67
  RNA-seq results, TMEM67: −0.01
  RNA-seq results: TMEM67: 0.04
Gene TMEM135
  RNA-seq results, TMEM135: −0.13
  RNA-seq results: TMEM135: −0.41
Gene TMEM165
  RNA-seq results, TMEM165: −0.14
  RNA-seq results: TMEM165: −0.17
Gene TMLHE
  RNA-seq results, TMLHE: −0.03
  RNA-seq results: TMLHE: −0.50
Gene TMPRSS6
  RNA-seq results, TMPRSS6: 0.1
  RNA-seq results: TMPRSS6: 0.34
Gene TNFRSF1A
  RNA-seq results, TNFRSF1A: 0.25
  RNA-seq results: TNFRSF1A: −0.13
Gene TNFSF11
  RNA-seq results, TNFSF11: −0.54
  RNA-seq results: TNFSF11: −0.28
Gene TP53
  RNA-seq results, TP53: −0.02
  RNA-seq results: TP53: 0.04
Gene TTC21B
  RNA-seq results, TTC21B: −0.14
  RNA-seq results: TTC21B: −0.28
Gene TTPA
  RNA-seq results, TTPA: −0.46
  RNA-seq results: TTPA: −0.20
Gene TTR
  RNA-seq results, TTR: 0.19
  RNA-seq results: TTR: −0.23
Gene TYMP
  RNA-seq results, TYMP: 0.37
  RNA-seq results: TYMP: 0.37
Gene UBR1
  RNA-seq results, UBR1: −0.38
  RNA-seq results: UBR1: −0.15
Gene UGT1A1
  RNA-seq results, UGT1A1: −0.06
  RNA-seq results: UGT1A1: −0.38
Gene UGT2B28
  RNA-seq results, UGT2B28: 0.09
  RNA-seq results: UGT2B28: 0.41
Gene UNC13D
  RNA-seq results, UNC13D: 0.05
  RNA-seq results: UNC13D: 0.44
Gene UPB1
  RNA-seq results, UPB1: 0.33
  RNA-seq results: UPB1: 0.19
Gene UQCRB
  RNA-seq results, UQCRB: 0.17
  RNA-seq results: UQCRB: −0.18
Gene UROC1
  RNA-seq results, UROC1: −0.25
  RNA-seq results: UROC1: −0.26
Gene UTRN
  RNA-seq results, UTRN: −0.35
  RNA-seq results: UTRN: −0.06
Gene VIPAS39
  RNA-seq results, VIPAS39: 0.05
  RNA-seq results: VIPAS39: −0.08
Gene VLDLR
  RNA-seq results, VLDLR: 0.62
  RNA-seq results: VLDLR: −0.30
Gene VPS13A
  RNA-seq results, VPS13A: −0.28
  RNA-seq results: VPS13A: 0.08
Gene VPS33B
  RNA-seq results, VPS33B: 0.18
  RNA-seq results: VPS33B: 0.13
Gene WAS
  RNA-seq results, WAS: 0.19
  RNA-seq results: WAS: 0.03
Gene WDR35
  RNA-seq results, WDR35: −0.19
  RNA-seq results: WDR35: −0.03
Gene XDH
  RNA-seq results, XDH: 0.28
  RNA-seq results: XDH: 0.17
Gene YARS2
  RNA-seq results, YARS2: 0
  YARS2 expression, RNA-seq result: −0.36
